Our source for the safety in mice values is US12577281B2, “Mitochondrial-derived peptides and analogs thereof for use as a therapy for age-related diseases including cancer” (University of Southern California, priority 2020, dated 2026).

Where a SMILES comes first, the peptide text is derived from it.

The data set in a line: Safety of NOSH in mice. Type of data set: in vivo. On the procedure:
FIG. 1. NOSH (ND-One short open reading frames (sORF) in Humans) is safe in mice. NOSH has a sequence of […] (SEQ ID NO:215).
NOSH was safe in mice. Further, NOSH increased autophagy. The level of autophagy-related protein microtubule-associated protein 1 light chain 3 (LC3) was increased in PC3 cells treated with 5 μM NOSH for 6 h. FIG. 2.

As to `CC[C@H](C)[C@H](NC(=O)[C@H](CC(C)C)NC(=O)[C@@H](NC(=O)[C@H](CC(C)C)NC(=O)[C@H](CCSC)NC(=O)[C@H](CC(C)C)NC(=O)[C@H](CO)NC(=O)[C@H](CC(C)C)NC(=O)[C@H](CO)NC(=O)[C@H](CCCNC(=N)N)NC(=O)CNC(=O)[C@H](CO)NC(=O)[C@H](CCCNC(=N)N)NC(=O)[C@H](CCCNC(=N)N)NC(=O)[C@@H](NC(=O)[C@H](C)NC(=O)[C@H](CC(C)C)NC(=O)[C@H](CC(C)C)NC(=O)[C@H](CC(C)C)NC(=O)CNC(=O)[C@H](Cc1ccccc1)NC(=O)[C@H](CC(C)C)NC(=O)[C@H](CCCNC(=N)N)NC(=O)[C@@H](N)CCSC)C(C)C)[C@@H](C)O)C(=O)N[C@@H](CCCNC(=N)N)C(=O)NCC(=O)N[C@@H](CC(C)C)C(=O)N[C@@H](CO)C(=O)N[C@@H](CCCCN)C(=O)N[C@@H](CCCNC(=N)N)C(=O)N[C@@H](CC(C)C)C(=O)NCC(=O)O` [NOSH] (H-MRLFGLLLAVRRSGRSLSLMLTLIRGLSKRLG-OH), the safety in mice entry is given as “safe”.
